Patent US10183013B2, “Cyclic sulfonamide containing derivatives as inhibitors of hedgehog signaling pathway” (NantBioScience, Inc., priority 2012, dated 2019)
Where two headings read alike, the source gives them in different places.

Key:
[1] = test system: Hedgehog signalling (Gli-bla NIH3T3 cells, mShh stimulated); assay: Hedgehog signalling inhibition assay (Gli-Bla reporter assay in NIH 3T3 cells); format: cell-based
Description: Hedgehog signalling inhibition assays. The following table 2 represents the average EC50 values for particular compounds of the inventions. Gli-bla NIH3T3 cells (7500 cells/well) were plated the day prior to the assay in a 384-well and 96-format in complete growth medium. […] Cells were stimulated with mShh for 24 hours and then loaded with LiveBLAzer™-FRET B/G Substrate for 3 hours. Emission values at 460 nm and 530 nm were obtained using a standard fluorescence plate reader and the 460/530 Ratios plotted for each treatment (n=4 for each data point).
J. Cancer, 2011, 30(7):472-81).

[2] = target: T1, SMO (Homo sapiens, UniProt Q99835); assay: SMO BODIPY-CYC binding assay using HEK293H cells
T1 construct: host or cells: HEK293H cells
T1 sequence (Q99835 28-787): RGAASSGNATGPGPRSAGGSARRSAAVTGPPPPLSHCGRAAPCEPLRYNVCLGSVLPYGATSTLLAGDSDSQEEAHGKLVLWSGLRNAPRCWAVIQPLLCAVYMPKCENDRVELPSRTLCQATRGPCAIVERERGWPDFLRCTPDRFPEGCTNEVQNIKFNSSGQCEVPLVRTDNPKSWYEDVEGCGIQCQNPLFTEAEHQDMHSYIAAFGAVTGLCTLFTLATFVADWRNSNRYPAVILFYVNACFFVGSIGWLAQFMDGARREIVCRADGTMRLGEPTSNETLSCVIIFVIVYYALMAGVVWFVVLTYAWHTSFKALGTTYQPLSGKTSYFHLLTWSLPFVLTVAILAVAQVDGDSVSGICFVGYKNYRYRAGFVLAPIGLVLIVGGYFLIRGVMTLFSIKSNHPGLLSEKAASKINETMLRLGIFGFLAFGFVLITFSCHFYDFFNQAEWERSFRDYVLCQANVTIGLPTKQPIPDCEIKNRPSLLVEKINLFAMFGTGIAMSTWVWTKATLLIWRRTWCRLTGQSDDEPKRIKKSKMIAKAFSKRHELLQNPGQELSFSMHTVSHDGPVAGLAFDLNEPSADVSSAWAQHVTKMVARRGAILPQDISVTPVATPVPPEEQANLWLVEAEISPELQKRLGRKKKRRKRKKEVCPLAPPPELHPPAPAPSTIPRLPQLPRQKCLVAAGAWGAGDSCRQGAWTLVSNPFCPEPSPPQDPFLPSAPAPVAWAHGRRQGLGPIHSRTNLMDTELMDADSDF

[3] = Mus musculus, NIH3T3, 24 h, read-out: EC50

| SMILES | EC50 [1, 3] | further results |
| --- | --- | --- |
| O=C(Nc1cc(NC(=O)c2ccc(N3CCOCS3(=O)=O)cc2Cl)ccc1Cl)c1ccc(Cl)cc1 [Example 126, 2-chloro-N-(4-chloro-3-(4-chlorobenzamido)phenyl)-4-(3,3-dioxido-1,3,4-oxathiazinan-4-yl)benzamide] | < 10 nM | – |
| O=C(Nc1cc(NC(=O)c2ccc(N3CCOCS3(=O)=O)cc2Cl)ccc1Cl)c1nccs1 [Example 127, N-(2-chloro-5-(2-chloro-4-(3,3-dioxido-1,3,4-oxathiazinan-4-yl)benzamido)phenyl)thiazole-2-carboxamide] | < 10 nM | – |
| O=C(Nc1ccc(Cl)c(NC(=O)c2cccc(Cl)c2)c1)c1ccc(N2CCCCS2(=O)=O)cc1 [Example 128] | < 10 nM | – |
| O=C(Nc1ccc(Cl)c(NC(=O)c2cccc(Cl)c2)c1)c1ccc(N2CCCS2(=O)=O)cc1 [Example 129] | < 10 nM | – |
| O=C(Nc1cc(NC(=O)c2ccc(N3CCOCS3(=O)=O)cc2Cl)ccc1Cl)c1cccc(Cl)c1 [Example 130] | < 10 nM | – |
| O=C(Nc1ccc(Cl)c(Oc2cccc(Cl)c2)c1)c1ccc(N2CCCS2(=O)=O)cc1Cl [Example 131] | < 10 nM | – |
| O=C(Nc1ccc(Cl)c(NC(=O)c2cccc(Cl)c2)c1)c1ccc(N2CCCS2(=O)=O)c(Cl)c1 [Example 132] | < 10 nM | – |
| O=C(Nc1ccc(Cl)c(NC(=O)c2ccccc2Cl)c1)c1ccc(N2CCOCS2(=O)=O)cc1Cl [Example 133, 2-chloro-N-(4-chloro-3-(2-chlorobenzamido)phenyl)-4-(3,3-dioxido-1,3,4-oxathiazinan-4-yl)benzamide] | < 10 nM | – |
| O=C(Nc1cc(NC(=O)c2ccc(N3CCCS3(=O)=O)cc2Cl)ccc1Cl)c1ccccc1 [Example 134] | < 10 nM | – |
| O=C(Nc1cc(NC(=O)c2ccc(N3CCCS3(=O)=O)cc2Cl)ccc1Cl)c1cccnc1 [Example 135, N-(2-chloro-5-(2-chloro-4-(1,1-dioxidoisothiazolidin-2-yl)benzamido)phenyl) nicotinamide] | < 10 nM | – |
| O=C(Nc1cc(NC(=O)c2ccc(N3CCOCS3(=O)=O)cc2Cl)ccc1Cl)c1cccnc1 [Example 136] | < 10 nM | – |
| O=C(Nc1ccc(Cl)c(Oc2cccc(Cl)c2)c1)c1ccc(N2CCOCS2(=O)=O)cc1Cl [Example 137] | < 10 nM | – |
| O=C(Nc1ccc(Cl)c(Oc2cccc(Cl)c2)c1)c1ccc(N2CCCS2(=O)=O)cc1 [Example 138] | < 10 nM | – |
| O=C(Nc1ccc(Cl)c(Oc2cccc(Cl)c2)c1)c1ccc(N2CCCS2(=O)=O)c(F)c1 [Example 139] | < 10 nM | – |
| CC(=O)Nc1cc(NC(=O)c2ccc(N3CCCS3(=O)=O)cc2Cl)ccc1Cl [Example 140] | 1000 nM | – |
| O=C(Nc1ccc(Oc2cccc(Cl)c2)cc1)c1ccc(N2CCCS2(=O)=O)cc1Cl [Example 141] | < 10 nM | – |
| O=C(Nc1ccc(Oc2cccc(Cl)c2)cc1)c1ccc(N2CCOCS2(=O)=O)cc1Cl [Example 142] | < 10 nM | – |
| CC(=O)Nc1cc(NC(=O)c2ccc(N3CCOCS3(=O)=O)cc2Cl)ccc1Cl [Example 143] | < 10 nM | – |
| CS(=O)(=O)c1ccc(C(=O)Nc2ccc(Cl)c(-c3ccccn3)c2)c(Cl)c1 [GDC-0449, reference compound] | – | EC50 ([1]; Mus musculus, NIH3T3, NIH 3T3 cells, read-out: Gli-Bla reporter assay (EC50)): 7 nM |
| Cc1nn(-c2ccccc2)c(C)c1/C=N/N1CCN(Cc2ccccc2)CC1 [Sant-1, reference compound] | – | EC50 ([1]; NIH 3T3 cells, read-out: Gli-Bla reporter assay (EC50)): 5 nM; EC50 [2]: 0.592 nM |
